System: rat femoral arteries (intimal hyperplasia)
Assay: Intimal hyperplasia in rat femoral arteries formed by photosensitization (rose bengal and green light)
Type: in vivo, Wistar rat
Conditions: left femoral artery, vs solvent group
Experimental: Under intraperitoneal anesthesia with pentobarbital (50 mg/mL/kg), a catheter was placed in the left cervical vein of a Wistar rat. The left femoral artery was detached, and the probe of an ultrasonic pulse Doppler blood flowmeter was placed on the artery. The artery proximal to the site of placement of the probe was irradiated with green light (540 nm, 800,000 1×) at a distance of 5 mm from the artery. A steady blood flow was confirmed after 10 minutes of start of the irradiation, and 15 mg/mL/kg of rose bengal was injected into the left cervical vein to damage the vascular endothelium. Then, the incision was sutured. Rats were divided in order as a solvent group (9 rats), a group (10 rats) to which 10 mg/kg of Compound A was administered, and a group (10 rats) to which 300 mg/kg of Cilostazol was administered. The drugs were suspended in 0.5% methylcellulose solution, adjusted so as to be administered at a dose of 5 mL/kg, and orally administered on the day of operation after confirmation of postoperative arousal, and then orally administered once a day in the morning for the subsequent three weeks. Three weeks after the operation, the left femoral artery was exposed under anesthesia. […] The medial areas and the intimal area in transverse sections of the femoral arteries were measured as indices of intimal hyperplasia with a computer image analyzer, and the ratio of the […] (the I/M ratio) was calculated. The results are expressed as average±standard deviation. The intimal areas and the I/M ratios were analyzed for distribution uniformity in each group by Bartlett's test. If the distribution was uniform, one-way analysis of variance was done, and the averages for the solvent group and the respective drug-treated groups were analyzed by Dunnett's test to determine if there was significant difference between them. When the distribution was not uniform, the Kruskal-Wallis rank test was done, and if there was significant difference between the solvent group and a drug-treated group, the average ranks for the two groups were analyzed by Dunnett's test. […]

[1] = 10 mg/kg orally once a day for three weeks, Dunnett's test p<0.05

Compound	intimal hyperplasia inhibitory action (intimal area and I/M ratio) (300 mg/kg orally once a day for three weeks)	I/M ratio [1]	area of the tunica intima (intimal area) [1]
O=C1CCc2cc(OCCCCc3nnnn3C3CCCCC3)ccc2N1 [Cilostazol, reference compound]	showed no action	–	–
Cl.O=c1[nH]nc(OCCCc2ccc(Cl)cc2)c(NCc2cccnc2)c1Br [Compound A, 4-bromo-6-[3-(4-chlorophenyl)propoxy]-5-(3-pyridylmethylamino)-3(2H)-pyridazinone hydrochloride]	–	significantly reduced	significantly reduced
